Results reported in US20250011304A1, “CRYSTALLINE FORM OF N-(2-CHLORO-3-((5-CHLORO-3-METHYL-4-OXO-3,4-DIHYDROQUINAZOLIN-6-YL)AMINO)-4-FLUOROPHENYL)-3-FLUOROAZETIDINE-1-SULFONAMIDE” (Array BioPharma Inc., priority 2021, published 2025).
Entries after “also recorded” stand apart in the source; their conditions may differ.

How the values were obtained:
[1] = target: T1, full-length FLAG-tagged B-Raf(V600E) (Homo sapiens, UniProt P15056, V600E); experiment: BRAF V600E enzyme assay (TR-FRET competitive tracer displacement); assay type: binding; conditions: 60 min, ambient temperature
T1 construct: 5 nM full-length, N-terminally FLAG-tagged B-Raf(V600E) (Origene Technologies, TP700031); purchased Origene Technologies TP700031
Method: A competitive displacement assay was configured for B-Raf that monitors the amount of a fluorescently-tagged “tracer” bound to B-Raf via TR-FRET from an anti-tag Eu-labeled antibody also bound to B-Raf. For full-length FLAG-tagged B-Raf(V600E), the assay mixtures consisted of 25 mM K^+HEPES, pH 7.4, 10 mM MgCl2, 0.01% Triton X-100, 1 mM DTT, 2% DMSO (from compound), 50 nM Tracer 1710 (ThermoFisher, PR9176A), 0.5 nM Eu anti-FLAG (M2)-cryptate Ab (Cisbio, 61FG2KLB) and 5 nM full-length, N-terminally FLAG-tagged B-Raf(V600E) (Origene Technologies, TP700031. N-(2-chloro-3-((5-chloro-3-methyl-4-oxo-3,4-dihydroquinazolin-6-yl)amino)-4-fluorophenyl)-3-fluoroazetidine-1-sulfonamide was diluted in DMSO across an 11-point dosing range created using a 3-fold serial dilution protocol at a top dose of 10 μM. The assay was run in 384-well, polystyrene, low-volume, non-treated, white microtiter plates (Costar 4512) in a final volume of 12 μL. Low control wells included 1 μM of a potent B-Raf inhibitor as a control. The assays were incubated at ambient temperature (typically 22° C.) for 60 min and then read on a PerkinElmer EnVision microplate reader using standard TRF settings (λEx=320 nm, λEm=615 & 665 nm). The ratioed counts (665 nm/615 nm) were converted to percent of control (POC) using the following equation:
[formula] • where: • xmax Average Uninhibited Controls • Xmin Average Background […]

MDR1 (P-gp) = target: T2, MDR1 (P-gp) (Homo sapiens, UniProt P08183); experiment: MDR1 LLC-PK1 permeability assay (efflux); assay type: in vitro ADME; conditions: statement in background
T2 construct: expressed in transfected cells; host or cells: LLC-PK1
Text: (§1) Final organic concentration in the assay was 1%.
(§2) The efflux ratios for N-(2-chloro-3-((5-chloro-3-methyl-4-oxo-3,4-dihydroquinazolin-6-yl)amino)-4-fluorophenyl)-3-fluoroazetidine-1-sulfonamide (Compound 1) when tested in this assay were 2.1 (MDR1) and 4.2 (BCRP).

BCRP [2] = target: T3, BCRP (Homo sapiens, UniProt Q9UNQ0); experiment: BCRP MDCKII permeability assay (efflux); assay type: in vitro ADME; conditions: statement in background
T3 construct: expressed in transfected cells; host or cells: MDCKII
T3 sequence (Q9UNQ0 1-655): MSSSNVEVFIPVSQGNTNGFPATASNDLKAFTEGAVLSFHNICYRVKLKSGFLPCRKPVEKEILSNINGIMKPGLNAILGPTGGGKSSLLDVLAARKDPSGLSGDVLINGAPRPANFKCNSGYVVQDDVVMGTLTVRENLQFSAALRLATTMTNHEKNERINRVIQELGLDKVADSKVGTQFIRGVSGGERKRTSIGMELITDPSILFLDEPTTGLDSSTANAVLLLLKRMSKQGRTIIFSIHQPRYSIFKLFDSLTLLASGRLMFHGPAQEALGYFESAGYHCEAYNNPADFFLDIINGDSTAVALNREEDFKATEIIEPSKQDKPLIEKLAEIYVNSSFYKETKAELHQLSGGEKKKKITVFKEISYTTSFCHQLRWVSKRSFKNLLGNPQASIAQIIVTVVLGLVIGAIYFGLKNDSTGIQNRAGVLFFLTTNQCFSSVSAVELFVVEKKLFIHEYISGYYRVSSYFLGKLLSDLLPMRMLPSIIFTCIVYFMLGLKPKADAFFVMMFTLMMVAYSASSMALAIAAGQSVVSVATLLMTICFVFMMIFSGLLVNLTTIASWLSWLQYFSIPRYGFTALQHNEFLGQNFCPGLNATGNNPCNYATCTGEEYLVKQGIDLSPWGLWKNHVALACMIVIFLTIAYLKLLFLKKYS
Text: as §1, §2

[3] = PK (free brain-to-free plasma ratio) (mouse); assay type: in vivo; conditions: male CD-1 mice, oral gavage 10 mg/kg, (B/P)*(Bfu/Pfu)
Method: The ability of N-(2-chloro-3-((5-chloro-3-methyl-4-oxo-3,4-dihydroquinazolin-6-yl)amino)-4-fluorophenyl)-3-fluoroazetidine-1-sulfonamide (Compound 1) to penetrate the BBB in mice was determined by evaluating the unbound brain-to-unbound plasma (also referred to as free brain-to-free plasma) concentration ratio in male CD-1 mice.
Brain compound levels were generated from oral mouse PK dosing with typical sampling times of 2, 4, 8, 12 and 24 hours post oral gavage dosing at 10 mg/kg. Brain samples were stored at −20±5° C. prior to analysis. Concentrations of Compound 1 in mouse brain homogenate were determined by liquid chromatography tandem mass spectrometry (LC-MS/MS) following protein precipitation with acetonitrile. A 12-point calibration curve, ranging from 0.5 to 10,000 ng/mL, was prepared in duplicate. […]
Brain-to-plasma ratios were calculated using the concentration of Compound 1 measured in the brain divided by the concentration of compound measured in the plasma. […] Free brain-to-free plasma ratios were calculated by multiplying the brain-to-plasma ratio by the in vitro brain homogenate free fraction divided by the in vitro plasma free fraction using the following equation: (B/P)*(Bfu/Pfu). […]

[4] = Physical stability analysis by PXRD; assay type: physicochemical; conditions: for physical stability under accelerated stability conditions: 70° C./75% relative humidity (RH) for 8 days
Method: Powder X-ray Diffraction (PXRD) method for characteristic peak determination Powder X-ray diffraction analysis was conducted using a Bruker AXS D8 Endeavor diffractometer equipped with a Copper (Cu) radiation source. The divergence slit was set at 15 mm continuous illumination. Diffracted radiation was detected by a PSD-Lynx Eye detector, with the detector PSD opening set at 2.99 degrees. The X-ray tube voltage and amperage were set to 40 kV and 40 mA respectively. Data was collected in the Theta-Theta goniometer at the Cu wavelength (CuKα=[…]) from 3.0 to 40.0 degrees 2-Theta using a step size of 0.01 degrees and a step time of 1.0 second. The antiscatter screen was set to a fixed distance of 3.0 mm. Samples were rotated at 15/min during collection. Samples were prepared by placing them in a silicon low background sample holder and rotated during collection. Data were collected using Bruker DIFFRAC Plus software and analysis was performed by EVA diffract plus software. The PXRD data file was not processed prior to peak searching. Using the peak search algorithm in the EVA software, peaks selected with a threshold value of 1 were used to make preliminary peak assignments. To ensure validity, adjustments were manually made; the output of automated assignments was visually checked, and peak positions were adjusted to the peak maximum. Peaks with relative intensity of >3% were generally chosen. Typically, the peaks which were not resolved or were consistent with noise were not selected. A typical error associated with the peak position from PXRD stated in USP up to +/−0.2° 2-Theta (USP-941).
Table 5 details the differences between Form 1 and amorphous form.

[5] = Hygroscopicity (DVS water sorption and desorption); assay type: physicochemical; conditions: for Hygroscopicity: DVS 0-90% RH; for Mass Gain at 25° C. and 60% RH / Mass Gain at 25° C. and 90% RH: DVS; for PXRD Post-DVS: solid form of powder remaining after DVS analysis
Method: Water sorption and desorption were analyzed with a DVS-Resolution. The microbalance was calibrated with a 100 mg standard weight on a monthly basis. About 8 mg of the compound was added to a sample pan and placed inside chamber A of the DVS-Resolution. Percent relative humidity was held at 0% for 1 hour, and increased to 90% in 10% increments, then ramped back to 0% in 10% increments. […] The powder material remaining following the DVS analysis was analyzed by PXRD to determine if a change in the diffraction pattern is observed.

BCRP [6] = target: T4, BCRP (Mus musculus, UniProt Q7TMS5); conditions: reported by Mittapalli et al.; cited from earlier work
T4 sequence (Q7TMS5 1-657): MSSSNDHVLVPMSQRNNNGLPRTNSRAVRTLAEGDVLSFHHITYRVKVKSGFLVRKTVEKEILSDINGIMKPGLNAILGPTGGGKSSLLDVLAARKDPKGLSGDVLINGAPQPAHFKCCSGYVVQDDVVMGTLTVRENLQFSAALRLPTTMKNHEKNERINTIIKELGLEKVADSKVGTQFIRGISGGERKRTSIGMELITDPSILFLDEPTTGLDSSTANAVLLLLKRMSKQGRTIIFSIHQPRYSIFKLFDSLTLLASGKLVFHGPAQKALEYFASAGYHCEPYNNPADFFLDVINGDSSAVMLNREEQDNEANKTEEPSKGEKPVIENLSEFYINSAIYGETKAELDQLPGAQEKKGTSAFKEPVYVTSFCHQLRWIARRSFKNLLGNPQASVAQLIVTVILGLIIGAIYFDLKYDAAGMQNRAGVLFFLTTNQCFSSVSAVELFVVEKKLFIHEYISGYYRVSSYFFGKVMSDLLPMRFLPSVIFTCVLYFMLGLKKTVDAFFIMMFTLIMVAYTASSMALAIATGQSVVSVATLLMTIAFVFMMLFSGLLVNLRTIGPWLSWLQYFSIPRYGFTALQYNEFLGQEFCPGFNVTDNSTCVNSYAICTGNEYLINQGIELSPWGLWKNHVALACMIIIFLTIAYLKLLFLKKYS

T1 sequence (P15056 whole entry V600E): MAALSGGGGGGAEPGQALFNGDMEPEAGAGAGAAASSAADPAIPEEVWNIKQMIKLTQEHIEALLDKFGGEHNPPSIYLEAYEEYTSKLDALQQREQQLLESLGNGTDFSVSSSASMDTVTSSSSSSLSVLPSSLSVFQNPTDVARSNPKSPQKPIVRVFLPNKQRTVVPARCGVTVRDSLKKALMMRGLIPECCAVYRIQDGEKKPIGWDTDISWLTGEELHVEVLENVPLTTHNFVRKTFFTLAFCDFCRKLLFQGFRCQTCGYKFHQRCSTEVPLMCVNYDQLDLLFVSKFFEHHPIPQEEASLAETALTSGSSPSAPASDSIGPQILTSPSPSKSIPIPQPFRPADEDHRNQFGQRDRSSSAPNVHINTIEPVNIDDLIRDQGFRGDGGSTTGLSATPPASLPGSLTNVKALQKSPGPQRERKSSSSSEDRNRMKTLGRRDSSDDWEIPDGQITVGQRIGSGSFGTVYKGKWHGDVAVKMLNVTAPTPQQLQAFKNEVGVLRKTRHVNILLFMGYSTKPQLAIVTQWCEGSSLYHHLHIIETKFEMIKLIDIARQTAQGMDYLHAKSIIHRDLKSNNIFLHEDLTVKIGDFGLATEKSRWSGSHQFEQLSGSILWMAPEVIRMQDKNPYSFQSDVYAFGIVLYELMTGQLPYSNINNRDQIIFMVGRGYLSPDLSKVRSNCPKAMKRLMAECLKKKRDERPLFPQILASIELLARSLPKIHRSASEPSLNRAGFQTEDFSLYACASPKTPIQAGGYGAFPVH
T2 sequence (P08183 whole entry, species assumed): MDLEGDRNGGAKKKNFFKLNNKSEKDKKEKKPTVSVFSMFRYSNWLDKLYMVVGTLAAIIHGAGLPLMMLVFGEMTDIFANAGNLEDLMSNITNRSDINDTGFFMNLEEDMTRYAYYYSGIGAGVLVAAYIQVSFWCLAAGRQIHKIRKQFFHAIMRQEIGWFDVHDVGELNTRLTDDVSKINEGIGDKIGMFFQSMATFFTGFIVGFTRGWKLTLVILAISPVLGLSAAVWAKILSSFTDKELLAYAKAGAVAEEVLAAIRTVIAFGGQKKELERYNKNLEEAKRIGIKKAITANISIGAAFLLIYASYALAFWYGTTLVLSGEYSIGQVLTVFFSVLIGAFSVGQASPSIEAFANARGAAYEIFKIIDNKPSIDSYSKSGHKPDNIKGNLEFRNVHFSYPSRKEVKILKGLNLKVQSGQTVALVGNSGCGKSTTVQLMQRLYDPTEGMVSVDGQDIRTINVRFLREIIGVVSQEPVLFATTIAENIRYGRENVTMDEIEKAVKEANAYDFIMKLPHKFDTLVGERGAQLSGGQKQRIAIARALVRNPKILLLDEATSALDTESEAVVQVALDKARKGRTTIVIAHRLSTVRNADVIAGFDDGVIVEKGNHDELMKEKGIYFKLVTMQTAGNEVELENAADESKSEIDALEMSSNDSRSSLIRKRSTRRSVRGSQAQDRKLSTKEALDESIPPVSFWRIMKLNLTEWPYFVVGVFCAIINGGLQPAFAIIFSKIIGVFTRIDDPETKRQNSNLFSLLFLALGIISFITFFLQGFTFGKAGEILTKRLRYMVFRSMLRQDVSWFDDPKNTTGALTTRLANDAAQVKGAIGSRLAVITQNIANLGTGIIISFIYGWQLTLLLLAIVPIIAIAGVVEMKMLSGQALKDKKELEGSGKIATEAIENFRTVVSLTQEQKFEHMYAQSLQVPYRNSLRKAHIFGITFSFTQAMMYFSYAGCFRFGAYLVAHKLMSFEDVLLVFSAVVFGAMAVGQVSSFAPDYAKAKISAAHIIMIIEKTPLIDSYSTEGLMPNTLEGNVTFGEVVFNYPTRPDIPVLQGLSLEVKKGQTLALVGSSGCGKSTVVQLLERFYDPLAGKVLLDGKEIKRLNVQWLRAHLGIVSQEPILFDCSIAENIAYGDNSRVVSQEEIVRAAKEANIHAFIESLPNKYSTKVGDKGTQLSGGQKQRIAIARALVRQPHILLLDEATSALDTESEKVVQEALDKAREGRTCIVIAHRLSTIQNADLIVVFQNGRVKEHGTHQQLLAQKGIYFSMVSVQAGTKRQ

| Solid form identified by PXRD after 8 days ([4]; stored at 5° C.) | Solid form identified by PXRD after 8 days ([4]; stored at 70° C./75% RH) | Mass Gain at 25° C. and 90% RH [5] | Structure (SMILES) | physical stability under accelerated stability conditions [4] | Hygroscopicity [5] | BCRP efflux ratio (BCRP [6]) | also measured |
| --- | --- | --- | --- | --- | --- | --- | --- |
| – | – | – | Cn1cnc2ccc(Nc3c(F)ccc(NS(=O)(=O)N4CC(F)C4)c3Cl)c(Cl)c2c1=O [Compound 1, N-(2-chloro-3-((5-chloro-3-methyl-4-oxo-3,4-dihydroquinazolin-6-yl)amino)-4-fluorophenyl)-3-fluoroazetidine-1-sulfonamide] | – | – | – | IC50 [1]: 3 nM; substrate of active transporter P-glycoproteins (P-gp) (MDR1 (P-gp)): not a substrate; substrate of active transporter breast cancer resistance protein (BCRP) (BCRP [2]): not a substrate; Kp,uu (unbound brain-to-unbound plasma ratio) [3]: 0.12 to 0.17 |
| amorphous compound 1, | crystalline anhydrous | approximately 3.6% | Cn1cnc2ccc(Nc3c(F)ccc(NS(=O)(=O)N4CC(F)C4)c3Cl)c(Cl)c2c1=O [amorphous Compound 1, Form 2, amorphous N-(2-chloro-3-((5-chloro-3-methyl-4-oxo-3,4-dihydroquinazolin-6-yl)amino)-4-fluorophenyl)-3-fluoroazetidine-1-sulfonamide, Form 2] | crystallized to crystalline anhydrous Compound 1, Form 1 | hygroscopic | – | Hygroscopicity ([5]; Form 2): Hygroscopic; Mass Gain at 25° C. and 60% RH ([5]; Form 2): 1.7%; Mass Gain at 25° C. and 90% RH ([5]; Form 2): 3.6%; PXRD Post-DVS ([5]; Form 2): amorphous Compound |
| crystalline anhydrous | crystalline anhydrous | 0.0% | Cn1cnc2ccc(Nc3c(F)ccc(NS(=O)(=O)N4CC(F)C4)c3Cl)c(Cl)c2c1=O [crystalline anhydrous Compound 1, Form 1, crystalline anhydrous N-(2-chloro-3-((5-chloro-3-methyl-4-oxo-3,4-dihydroquinazolin-6-yl)amino)-4-fluorophenyl)-3-fluoroazetidine-1-sulfonamide, Form 1] | stable | not hygroscopic; also recorded: Non-Hygroscopic | – | Mass Gain at 25° C. and 60% RH [5]: 0.0%; PXRD Post-DVS [5]: crystalline anhydrous |
| – | – | – | CC(C)(C)c1nc(-c2cccc(NS(=O)(=O)c3c(F)cccc3F)c2F)c(-c2ccnc(N)n2)s1 [dabrafenib] | – | – | 21.0 | – |
| – | – | – | CCCS(=O)(=O)Nc1ccc(F)c(C(=O)c2c[nH]c3ncc(-c4ccc(Cl)cc4)cc23)c1F [vemurafenib] | – | – | 495 | – |
